Here are results for nine compounds from patent US10245275B2 (ViiV HEALTHCARE UK (NO.4) LIMITED, priority 2014, dated 2019).

Read-outs that look alike come from different tables or passages of the source. A value given as a limit tells only on which side of the number the result lay.

Assay [1] deals with WT (wild-type HIV virus; recombinant NL4-3 virus). In words: microbe, parasite or virus in culture. It counts as cell-based, HIV-1. Put shortly: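 MT-2 cells infected 4-5 days with NL4-3 carrying Renilla luciferase in place of part of nef (Gag P373S), virus made by 293T transfection, with serial inhibitor dilutions. Antiviral activity read as luciferase activity by a modified dual-luciferase read-out.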

Assay [2] deals with HIV-1 NL4-3 gag A364V virus. The experiment in a line: microbe, parasite or virus in culture. The class given is cell-based. The method in brief:
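Recombinant NL4-3 reporter virus with Renilla luciferase replacing part of nef, made by transfection of 293T cells. MT-2 cells infected for 4-5 days with serial inhibitor dilutions; antiviral activity quantified by luciferase activity.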

Assay [3] deals with HIV-1 92UG029 (clade A virus). The experiment in a line: HIV cell culture assay, 92UG029 Gag/Pr recombinant virus in MT-2 cells. The class given is cell-based. As to the method: MT-2 cells and 293T cells were obtained from the NIH AIDS Research and Reference Reagent Program. MT-2 cells were propagated in RPMI 1640 media supplemented with 10% heat-inactivated fetal bovine serum, […]. The 293T cells were propagated in DMEM media supplemented with 10% heat-inactivated fetal bovine serum (FBS), 100 units/mL penicillin G and 100 μg/mL streptomycin. The proviral DNA clone of NL4-3 was obtained from the NIH AIDS Research and Reference Reagent Program. A recombinant NL4-3 virus, in which a section of the nef gene from NL4-3 was replaced with the Renilla luciferase gene, was used as a reference virus. In addition, residue Gag P373 was converted to P373S. Briefly, the recombinant virus was prepared by transfection of the altered proviral clone of NL4-3. Transfections were performed in 293T cells using LipofectAMINE PLUS from Invitrogen (Carlsbad, Calif.), according to manufacturer's instruction. The virus was titered in MT-2 cells using luciferase enzyme activity as a marker. Luciferase was quantitated using the Dual Luciferase kit from Promega (Madison, Wis.), with modifications to the manufacturer's protocol. The diluted Passive Lysis solution was pre-mixed with the re-suspended Luciferase Assay Reagent and the re-suspended Stop & Glo Substrate (2:1:1 ratio). Fifty (50) μL of the mixture was added to each aspirated well on assay plates and luciferase activity was measured immediately on a Wallac TriLux (Perkin-Elmer). Antiviral activities of inhibitors toward the recombinant virus were quantified by measuring luciferase activity in cells infected for 4-5 days with NLRluc recombinants in the presence serial dilutions of the inhibitor.
Determination of EC50 for WT, EC50 for A364V, and EC50 for 92UG029 viruses:
HIV-1 92UG029 was obtained from the NIH (Catalog Number: 1650). This is a subtype A Gag and subtype A Env, X4 (SI) virus from Uganda. Reference: WHO Network for HIV Isolation and Characterization. AIDS Res Hum Retroviruses 10:1359, 1994. The Gag/Pr region from 92UG029 was used to replace that in an HIV-1 NL4-3 virus expressing Renilla luciferase gene.
Both recombinant viruses were used as described above in the HIV cell culture assay for the NL4-3 virus.

The mark [4] stands for this setting: Human immunodeficiency virus 1, NL43, MT2, read-out: WT (EC50, uM), Table 1 regular screen, MT-2 cells, luciferase readout.
The mark [5] stands for this setting: Human immunodeficiency virus 1, NL43, MT2, read-out: A364V (EC50, uM), Table 1 regular screen, MT-2 cells, luciferase readout.
Where [6] appears, read: Human immunodeficiency virus 1, MT2, read-out: 92UG029A Clade T332S/V362I/V370A (EC50, uM).
[7] abbreviates: Human immunodeficiency virus 1, NL43, MT2, read-out: WT (EC50, uM), Table 1 regular screen, class symbol.
[8] abbreviates: Human immunodeficiency virus 1, NL43, MT2, read-out: A364V (EC50, uM), Table 1 regular screen, class symbol.

As for `C=C(C)[C@@H]1CC[C@]2(NCCN3CCC(S(C)(=O)=O)CC3)CC[C@]3(C)[C@H](CC[C@@H]4[C@@]5(C)CC=C(C6=CCC(CF)(C(=O)O)CC6)C(C)(C)[C@@H]5CC[C@]43C)[C@@H]12` (mixture of isomers) [Example 1, 1-(fluoromethyl)-4-((1R,3aS,5aR,5bR,7aR,11aS,11bR,13aR,13bR)-5a,5b,8,8,11a-pentamethyl-3a-((2-(4-(methylsulfonyl)piperidin-1-yl)ethyl)amino)-1-(prop-1-en-2-yl)-2,3,3a,4,5,5a,5b,6,7,7a,8,11,11a,11b,12,13,13a,13b-octadecahydro-1H-cyclopenta[a]chrysen-9-yl)cyclohex-3-enecarboxylic acid], the EC50 in assay [1] (setting [4]) was 0.00175 µM; in assay [2] (setting [5]), 0.123 µM; in assay [3] (setting [6]), 0.00293 µM.

With `C=C(C)[C@@H]1CC[C@]2(NCCN3CCC(S(C)(=O)=O)CC3)CC[C@]3(C)[C@H](CC[C@@H]4[C@@]5(C)CC=C(C6=CCC(F)(C(=O)O)CC6)C(C)(C)[C@@H]5CC[C@]43C)[C@@H]12` (stereo partly drawn) [Compound A, reference compound], the EC50 in assay [1] (Human immunodeficiency virus 1, NL43, MT2, read-out: EC50 WT (μM), Table 2, 3× higher viral input) was 0.004 µM; in assay [2] (Human immunodeficiency virus 1, NL43, MT2, read-out: EC50 A364V (μM), Table 2, 3× higher viral input) it was 1.5 µM; in assay [3] (Human immunodeficiency virus 1, MT2, read-out: EC50 92UG029 (μM)) it was 0.61 µM. For the same compound, the “potency vs. WT (in words)” value in assay [1] (comparative data) was “good potency”. Moreover, in assay [2] (relative to Compound 2), the “fold less potent than Compound 2 vs A364V” value was “about 7 fold”. Also, in assay [3] (relative to Compound 2), the “fold less potent than Compound 2 vs 92UG029” value was more than 100 fold.

On to `C=C(C)[C@@H]1CC[C@]2(NCCN3CCC(S(C)(=O)=O)CC3)CC[C@]3(C)[C@H](CC[C@@H]4[C@@]5(C)CC=C(C6=CC[C@](CF)(C(=O)O)CC6)C(C)(C)[C@@H]5CC[C@]43C)[C@@H]12` [Example 1a, (S)-1-(fluoromethyl)-4-((1R,3aS,5aR,5bR,7aR,11aS,11bR,13aR,13bR)-5a,5b,8,8,11a-pentamethyl-3a-((2-(4-(methylsulfonyl)piperidin-1-yl)ethyl)amino)-1-(prop-1-en-2-yl)-2,3,3a,4,5,5a,5b,6,7,7a,8,11,11a,11b,12,13,13a,13b-octadecahydro-1H-cyclopenta[a]chrysen-9-yl)cyclohex-3-enecarboxylic acid], for which the EC50 stood at 0.00225 µM in assay [1] (setting [4]), 0.109 µM in assay [2] (setting [5]) and 0.00532 µM in assay [3] (setting [6]).

On to `C=C(C)[C@@H]1CC[C@]2(NCCN3CCC(S(C)(=O)=O)CC3)CC[C@]3(C)[C@H](CC[C@@H]4[C@@]5(C)CC=C(C6=CC[C@@](CF)(C(=O)O)CC6)C(C)(C)[C@@H]5CC[C@]43C)[C@@H]12` [Example 1b, (R)-1-(fluoromethyl)-4-((1R,3aS,5aR,5bR,7aR,11aS,11bR,13aR,13bR)-5a,5b, 8,8,11a-pentamethyl-3a-((2-(4-(methylsulfonyl)piperidin-1-yl)ethyl)amino)-1-(prop-1-en-2-yl)-2,3,3a,4,5,5a,5b,6,7,7a,8,11,11a,11 b,12,13,13a,13b-octadecahydro-1H-cyclopenta[a]chrysen-9-yl)cyclohex-3-enecarboxylic acid], for which the EC50 was determined as 0.00193 µM in assay [1] (setting [4]), 0.176 µM in assay [2] (setting [5]) and 0.00348 µM in assay [3] (setting [6]).

Regarding `C=C(C)[C@@H]1CC[C@]2(NCCC3(O)COC3)CC[C@]3(C)[C@H](CC[C@@H]4[C@@]5(C)CC=C(C6=CC[C@@](CF)(C(=O)O)CC6)C(C)(C)[C@@H]5CC[C@]43C)[C@@H]12` [Example 2-11, (R)-1-(fluoromethyl)-4-((1R,3aS,5aR,5bR,7aR,11aS,11bR,13aR,13bR)-3a-((2-(3-hydroxyoxetan-3-yl)ethyl)amino)-5a,5b, 8,8,11a-pentamethyl-1-(prop-1-en-2-yl)-2,3,3a,4,5,5a,5b,6,7,7a,8,11,11a,11b,12,13,13a,13b-octadecahydro-1H-cyclopenta[a]chrysen-9-yl)cyclohex-3-enecarboxylic acid], the figures for the EC50 in assay [1] (setting [7]), in assay [2] (setting [8]) and in assay [3] (setting [6]) were less than 0.05 µM, more than 0.05 µM and 0.0153 µM, respectively.

For the compound `C=C(C)[C@@H]1CC[C@]2(NCC[C@]3(O)CC[C@](C)(O)CC3)CC[C@]3(C)[C@H](CC[C@@H]4[C@@]5(C)CC=C(C6=CC[C@@](CF)(C(=O)O)CC6)C(C)(C)[C@@H]5CC[C@]43C)[C@@H]12` [Example 2-17, (R)-4-((1R,3aS,5aR,5bR,7aR,11aS,11bR,13aR,13bR)-3a-((2-((trans)-1,4-dihydroxy-4-methylcyclohexyl)ethyl)amino)-5a,5b,8,8,11a-pentamethyl-1-(prop-1-en-2-yl)-2,3,3a,4,5,5a,5b,6,7,7a,8,11,11a,11b,12,13,13a,13b-octadecahydro-1H-cyclopenta[a]chrysen-9-yl)-1-(fluoromethyl)cyclohex-3-enecarboxylic acid], the figures for the EC50 in assay [1] (setting [7]), in assay [2] (setting [8]) and in assay [3] (setting [6]) were less than 0.05 µM, less than 0.05 µM and 0.00937 µM, respectively.

With `C=C(C)[C@@H]1CC[C@]2(NCC(=O)N3C[C@@H]4C[C@H]3CS4(=O)=O)CC[C@]3(C)[C@H](CC[C@@H]4[C@@]5(C)CC=C(C6=CC[C@](CF)(C(=O)O)CC6)C(C)(C)[C@@H]5CC[C@]43C)[C@@H]12` [Example 37, (S)-4-((1R,3aS,5aR,5bR,7aR,11aS,11bR,13aR,13bR)-3a-((2-((1S,4S)-2,2-dioxido-2-thia-5-azabicyclo[2.2.1]heptan-5-yl)-2-oxoethyl)amino)-5a,5b,8,8,11a-pentamethyl-1-(prop-1-en-2-yl)-2,3,3a,4,5,5a,5b,6,7,7a,8,11,11a,11 b,12,13,13a,13b-octadecahydro-1H-cyclopenta[a]chrysen-9-yl)-1-(fluoromethyl)cyclohex-3-enecarboxylic acid], the results for the EC50 in assay [1] (setting [7]) and in assay [2] (setting [8]) were less than 0.05 µM and more than 0.05 µM, respectively.

As to `C=C(C)[C@@H]1CC[C@]2(C(=O)NCCN3CCS(=O)(=O)CC3)CC[C@]3(C)[C@H](CC[C@@H]4[C@@]5(C)CC=C(C6=CC[C@@](CF)(C(=O)O)CC6)C(C)(C)[C@@H]5CC[C@]43C)[C@@H]12` [Example 38, (R)-4-((1R,3aS,5aR,5bR,7aR,11aS,11bR,13aR,13bR)-3a-((2-(1,1-dioxidothiomorpholino)ethyl)carbamoyl)-5a,5b,8,8,11a-pentamethyl-1-(prop-1-en-2-yl)-2,3,3a,4,5,5a,5b,6,7,7a,8,11,11a,11b,12,13,13a,13b-octadecahydro-1H-cyclopenta[a]chrysen-9-yl)-1-(fluoromethyl)cyclohex-3-enecarboxylic acid], the EC50 in assay [1] (setting [7]) and in assay [2] (setting [8]) was less than 0.05 µM throughout.

For `C=C(C)[C@@H]1CC[C@]2(NCCS(=O)(=O)CCN3CCS(=O)(=O)CC3)CC[C@]3(C)[C@H](CC[C@@H]4[C@@]5(C)CC=C(C6=CC[C@](CF)(C(=O)O)CC6)C(C)(C)[C@@H]5CC[C@]43C)[C@@H]12` [Example 43, (S)-4-((1R,3aS,5aR,5bR,7aR,11aS,11bR,13aR,13bR)-3a-((2-((2-(1,1-dioxidothiomorpholino)ethyl)sulfonyl)ethyl)amino)-5a,5b,8,8,11a-pentamethyl-1-(prop-1-en-2-yl)-2,3,3a,4,5,5a,5b,6,7,7a,8,11,11a,11b,12,13,13a,13b-octadecahydro-1H-cyclopenta[a]chrysen-9-yl)-1-(fluoromethyl)cyclohex-3-enecarboxylic acid], the EC50 in assay [1] (setting [4]) was 0.00335 µM; in assay [2] (setting [5]), 0.585 µM.
